Among the data in patent US12673946B2, “Pyrimidin-4(3H)-one derivatives as TRPV4 antagonists” (RaQualia Pharma Inc., priority 2020, dated 2026) are IC50 values, retold here.

For the experiment, the target named is T1, human TRPV4 (Homo sapiens, UniProt Q9HBA0).
T1 construct: host or cells: tetracycline-inducible Flp-In T-REx 293 cells
The experiment is described as follows: Hypotonicity-induced Ca2+ influx (Fluo-4, FDSS). Type of experiment: cell-based. The gist of the method: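 Flp-In T-REx 293 cells with tetracycline-induced human TRPV4, loaded with Fluo-4 for 60 min at 25 °C. Compound added 5 min before hypotonic mannitol/CaCl2 solution. Ca2+ signal recorded for 4.5 min on FDSS.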

Setting [1] is: Flp-In T-REx 293 cells expressing human TRPV4, examples listed under heading 'Human IC50<50 nM'.
Setting [2] is: Flp-In T-REx 293 cells stably expressing human TRPV4, compounds listed by potency bin (<10 nM Tables 96-1/96-2, <3 nM Table 97).

T1 sequence (Q9HBA0 whole entry): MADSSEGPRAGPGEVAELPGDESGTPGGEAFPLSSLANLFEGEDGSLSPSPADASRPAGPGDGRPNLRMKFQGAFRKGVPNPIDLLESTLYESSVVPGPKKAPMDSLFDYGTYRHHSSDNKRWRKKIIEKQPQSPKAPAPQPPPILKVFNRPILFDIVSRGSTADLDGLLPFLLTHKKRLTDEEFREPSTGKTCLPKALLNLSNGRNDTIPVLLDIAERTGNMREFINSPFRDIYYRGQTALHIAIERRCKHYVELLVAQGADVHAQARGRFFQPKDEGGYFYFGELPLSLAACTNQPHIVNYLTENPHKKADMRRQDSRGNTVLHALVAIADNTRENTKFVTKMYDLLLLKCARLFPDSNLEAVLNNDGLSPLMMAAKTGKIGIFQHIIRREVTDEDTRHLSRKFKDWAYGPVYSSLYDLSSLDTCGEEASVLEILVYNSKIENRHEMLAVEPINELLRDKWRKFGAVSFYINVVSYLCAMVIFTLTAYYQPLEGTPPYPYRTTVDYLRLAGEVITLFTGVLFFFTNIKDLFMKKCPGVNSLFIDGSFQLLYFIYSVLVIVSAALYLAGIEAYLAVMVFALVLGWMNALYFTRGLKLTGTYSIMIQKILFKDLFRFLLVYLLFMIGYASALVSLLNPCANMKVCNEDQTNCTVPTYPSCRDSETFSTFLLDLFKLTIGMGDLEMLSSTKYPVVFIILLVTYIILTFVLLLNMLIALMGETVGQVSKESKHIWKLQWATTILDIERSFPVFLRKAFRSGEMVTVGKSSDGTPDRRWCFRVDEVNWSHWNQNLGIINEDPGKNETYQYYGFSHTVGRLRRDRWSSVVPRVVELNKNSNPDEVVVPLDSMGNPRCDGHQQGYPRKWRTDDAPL

For the compound `O=C(Cc1cccc(-c2cccc(Cl)c2)c1)N1CCCc2nc(C3(c4cccc(Cl)c4)CC3)[nH]c(=O)c2C1` [17-100], the IC50 runs as follows: under setting [1], below 50 nM; under setting [2], below 3 nM.

Compound `O=C(COc1ccc(-c2ccccc2)cc1)N1CCCc2nc(C3(c4cccc(Cl)c4)CC3)[nH]c(=O)c2C1` [17-102] registered an IC50 under setting [1] below 50 nM.

`O=C(COc1cccc(-c2ccccc2)c1)N1CCCc2nc(C3(c4cccc(Cl)c4)CC3)[nH]c(=O)c2C1` [17-105] showed an IC50 under setting [1] below 50 nM.

Under setting [1], `O=C(Cc1cccc(-c2cccc(C(F)(F)F)c2)c1)N1CCCc2c(nc(C3(c4ccccc4)CC3)[nH]c2=O)C1` [17-109] had an IC50 below 50 nM.

On to `O=C(Cc1cccc(C(F)(F)F)c1)N1CCCc2nc(C3(c4cccc(Cl)c4)CC3)[nH]c(=O)c2C1` [17-110], for which the IC50 is below 50 nM under setting [1] and below 10 nM under setting [2].

Take `O=C(Cc1cccc(C(F)(F)F)c1F)N1CCCc2nc(C3(c4cccc(Cl)c4)CC3)[nH]c(=O)c2C1` [17-111]: the IC50 runs as follows: under setting [1], below 50 nM; under setting [2], below 10 nM.

As for `O=C(Cc1cccc(OC(F)(F)F)c1)N1CCCc2nc(C3(c4cccc(Cl)c4)CC3)[nH]c(=O)c2C1` [17-112], under setting [1], the IC50 was below 50 nM.

As for `O=C(Cc1cccc(SC(F)(F)F)c1)N1CCCc2nc(C3(c4cccc(Cl)c4)CC3)[nH]c(=O)c2C1` [17-113], the IC50 reads like this: under setting [1], below 50 nM; under setting [2], below 10 nM.

In the case of `O=C(Cc1cccc(S(F)(F)(F)(F)F)c1)N1CCCc2nc(C3(c4cccc(Cl)c4)CC3)[nH]c(=O)c2C1` [17-114], the IC50 is, setting by setting: under setting [1], below 50 nM; under setting [2], below 10 nM.

Regarding `O=C(Cc1ccc2ccccc2c1)N1CCCc2nc(C3(c4cccc(Cl)c4)CC3)[nH]c(=O)c2C1` [17-115], the IC50 under setting [1] was below 50 nM.

As for `O=C(Cc1cccc(C2CC2)c1)N1CCCc2nc(C3(c4cccc(Cl)c4)CC3)[nH]c(=O)c2C1` [17-116], the IC50 by setting is: under setting [1], below 50 nM; under setting [2], below 10 nM.

Consider `O=C(/C=C/c1cccc(C(F)(F)F)c1)N1CCCc2nc(C3(c4cccc(Cl)c4)CC3)[nH]c(=O)c2C1` [17-117], for which the IC50 was below 50 nM under setting [1] and below 10 nM under setting [2].

For `O=C(Cc1cccc(-c2coc3ccccc23)c1)N1CCCc2nc(C3(c4cccc(Cl)c4)CC3)[nH]c(=O)c2C1` [17-118], the IC50 was below 50 nM under setting [1] and below 10 nM under setting [2].

For `N#Cc1cc(Cl)cc(-c2cccc(CC(=O)N3CCCc4nc(C5(c6cccc(Cl)c6)CC5)[nH]c(=O)c4C3)c2)c1` [17-119], the IC50 by setting is: under setting [1], below 50 nM; under setting [2], below 3 nM.

Compound `O=C(Cc1cccc2ccccc12)N1CCCc2nc(C3(c4cccc(Cl)c4)CC3)[nH]c(=O)c2C1` [17-120] yielded an IC50 under setting [1] below 50 nM and an IC50 under setting [2] below 10 nM.

`O=C(CCc1cccc(C(F)(F)F)c1)N1CCCc2nc(C3(c4cccc(Cl)c4)CC3)[nH]c(=O)c2C1` [17-121] showed an IC50 under setting [1] below 50 nM.

As for `O=C(Cc1cccc(OCc2ccccc2)c1)N1CCCc2nc(C3(c4cccc(Cl)c4)CC3)[nH]c(=O)c2C1` [17-122], the half-maximal inhibitory concentration (IC50) under setting [1] is below 50 nM and the IC50 under setting [2] was below 10 nM.

Regarding `O=C(Cc1cccc(-c2cccc(Cl)c2)c1)N1CCCc2nc(C3(c4cccc(-c5csc6ccccc56)c4)CC3)[nH]c(=O)c2C1` [17-123], the IC50 was below 50 nM under setting [1] and below 10 nM under setting [2].

`O=C([C@H](O)c1cccc(Br)c1)N1CCCc2nc(C3(c4cccc(-c5csc6ccccc56)c4)CC3)[nH]c(=O)c2C1` [17-124] displayed an IC50 under setting [1] below 50 nM and an IC50 under setting [2] below 10 nM.

On to `O=C(Cc1cccc(-c2cccc(C(F)(F)F)c2)c1)N1CCCc2nc(C3(c4cccc(-c5csc6ccccc56)c4)CC3)[nH]c(=O)c2C1` [17-125], for which the IC50 is, setting by setting: under setting [1], below 50 nM; under setting [2], below 10 nM.

Regarding `N#Cc1ccc(-c2cccc(CC(=O)N3CCCc4nc(C5(c6cccc(Cl)c6)CC5)[nH]c(=O)c4C3)c2)cc1` [17-126], the IC50 runs as follows: under setting [1], below 50 nM; under setting [2], below 10 nM.

As to `CC(C)(C)c1ccc(-c2cccc(CC(=O)N3CCCc4nc(C5(c6cccc(Cl)c6)CC5)[nH]c(=O)c4C3)c2)cc1` [17-127], the IC50 is below 50 nM under setting [1] and below 10 nM under setting [2].

For `O=C(Cc1cccc(-c2ccc(C(F)(F)F)cc2)c1)N1CCCc2nc(C3(c4cccc(Cl)c4)CC3)[nH]c(=O)c2C1` [17-128], the IC50 under setting [1] is below 50 nM and the IC50 under setting [2] is below 10 nM.

On to `O=C(Cc1cccc(-c2ccc(OC(F)(F)F)cc2)c1)N1CCCc2nc(C3(c4cccc(Cl)c4)CC3)[nH]c(=O)c2C1` [17-129], for which the IC50 by setting is: under setting [1], below 50 nM; under setting [2], below 10 nM.

Regarding `O=C(Cc1cccc(-c2ccc(Cl)cc2)c1)N1CCCc2nc(C3(c4cccc(Cl)c4)CC3)[nH]c(=O)c2C1` [17-130], the IC50 is below 50 nM under setting [1] and below 10 nM under setting [2].

Take `N#Cc1ccc(-c2cccc(CC(=O)N3CCCc4nc(C5(c6ccccc6)CC5)[nH]c(=O)c4C3)c2)cc1` [17-131]: the IC50 under setting [1] was below 50 nM.

Turning to `CC(C)(C)c1ccc(-c2cccc(CC(=O)N3CCCc4nc(C5(c6ccccc6)CC5)[nH]c(=O)c4C3)c2)cc1` [17-132], the IC50 under setting [1] is below 50 nM.

With `O=C(Cc1cccc(-c2ccc(C(F)(F)F)cc2)c1)N1CCCc2nc(C3(c4ccccc4)CC3)[nH]c(=O)c2C1` [17-133], the IC50 under setting [1] is below 50 nM and the IC50 under setting [2] was below 10 nM.

Turning to `O=C(Cc1cccc(-c2ccc(OC(F)(F)F)cc2)c1)N1CCCc2nc(C3(c4ccccc4)CC3)[nH]c(=O)c2C1` [17-134], the IC50 reads like this: under setting [1], below 50 nM; under setting [2], below 10 nM.

In turn, `O=C(Cc1cccc(-c2ccc(Cl)cc2)c1)N1CCCc2nc(C3(c4ccccc4)CC3)[nH]c(=O)c2C1` [17-135] gave an IC50 under setting [1] below 50 nM and an IC50 under setting [2] below 10 nM.

Turning to `O=C(Cc1cccc(-c2cccc(Cl)c2)c1)N1CCCc2nc(C3(c4ccccc4)CC3)[nH]c(=O)c2C1` [17-136], the IC50 by setting is: under setting [1], below 50 nM; under setting [2], below 10 nM.

With `O=C(Cc1cccc(-c2coc3ccccc23)c1)N1CCCc2nc(C3(c4ccccc4)CC3)[nH]c(=O)c2C1` [17-137], the IC50 reads like this: under setting [1], below 50 nM; under setting [2], below 10 nM.

Turning to `N#Cc1cc(Cl)cc(-c2cccc(CC(=O)N3CCCc4nc(C5(c6ccccc6)CC5)[nH]c(=O)c4C3)c2)c1` [17-138], the IC50 reads like this: under setting [1], below 50 nM; under setting [2], below 10 nM.

Regarding `O=C(Cc1ccccc1Oc1ccccc1)N1CCCc2nc(C3(c4cccc(Cl)c4)CC3)[nH]c(=O)c2C1` [17-139], the IC50 under setting [1] was below 50 nM and the IC50 under setting [2] is below 10 nM.

The compound `O=C(Cc1cccc(Oc2ccccc2)c1)N1CCCc2nc(C3(c4cccc(Cl)c4)CC3)[nH]c(=O)c2C1` [17-140] showed an IC50 under setting [1] below 50 nM.

`CC(C)(C)c1cccc(CC(=O)N2CCCc3nc(C4(c5cccc(Cl)c5)CC4)[nH]c(=O)c3C2)c1` [17-141]: the IC50 under setting [1] is below 50 nM and the IC50 under setting [2] is below 10 nM.

Turning to `CC(C)(C)c1cccc(CC(=O)N2CCCc3nc(C4(c5ccccc5)CC4)[nH]c(=O)c3C2)c1` [17-142], the IC50 under setting [1] was below 50 nM.

Turning to `O=C(Cc1ccccc1Oc1ccccc1)N1CCCc2nc(C3(c4ccccc4)CC3)[nH]c(=O)c2C1` [17-143], the IC50 under setting [1] is below 50 nM.

`O=C(Cc1cccc(Oc2ccccc2)c1)N1CCCc2nc(C3(c4ccccc4)CC3)[nH]c(=O)c2C1` [17-144] gave an IC50 under setting [1] below 50 nM.

For the compound `O=C(Cc1ccccc1OCc1ccccc1)N1CCCc2nc(C3(c4ccccc4)CC3)[nH]c(=O)c2C1` [17-145], the IC50 under setting [1] is below 50 nM and the IC50 under setting [2] was below 10 nM.

For the compound `O=C(Cc1cccc(OCc2ccccc2)c1)N1CCCc2nc(C3(c4ccccc4)CC3)[nH]c(=O)c2C1` [17-146], the IC50 runs as follows: under setting [1], below 50 nM; under setting [2], below 10 nM.

In the case of `O=C(COc1cccc(C(F)(F)F)c1)N1CCCc2nc(C3(c4cccc(Cl)c4)CC3)[nH]c(=O)c2C1` [17-147], under setting [1], the IC50 was below 50 nM.

For `CC(C)c1csc(C2(c3nc4c(c(=O)[nH]3)CN(C(=O)[C@H](O)c3cccc(C(F)(F)F)c3)CCC4)CC2)c1` [18-1], the IC50 runs as follows: under setting [1], below 50 nM; under setting [2], below 3 nM.

Consider `O=C([C@H](O)c1cccc(C(F)(F)F)c1)N1CCCc2nc(C3(c4cc(Br)cs4)CC3)[nH]c(=O)c2C1` [18-2], for which the IC50 reads like this: under setting [1], below 50 nM; under setting [2], below 3 nM.

`O=C(C(O)c1cccc(C(F)(F)F)c1F)N1CCCc2nc(C3(c4cccs4)CC3)[nH]c(=O)c2C1` (centres unmarked) [18-3]: the IC50 runs as follows: under setting [1], below 50 nM; under setting [2], below 3 nM.

For `O=C([C@H](O)c1cccc(C(F)(F)F)c1)N1CCCc2nc(C3(c4cc(C5CCCCC5)cs4)CC3)[nH]c(=O)c2C1` [18-4], the IC50 runs as follows: under setting [1], below 50 nM; under setting [2], below 10 nM.

Turning to `O=C(C(O)c1cccc(-c2ccc(Cl)cc2)c1)N1CCCc2nc(C3(c4cccs4)CC3)[nH]c(=O)c2C1` (centres unmarked) [18-5], the IC50 reads like this: under setting [1], below 50 nM; under setting [2], below 10 nM.

For `O=C(C(O)c1cccc(SC(F)(F)F)c1)N1CCCc2nc(C3(c4cccs4)CC3)[nH]c(=O)c2C1` (centres unmarked) [18-6], the concentration for half-maximal inhibition (IC50) is, setting by setting: under setting [1], below 50 nM; under setting [2], below 10 nM.

`CC(C)(C)c1cccc(C(O)C(=O)N2CCCc3nc(C4(c5cccs5)CC4)[nH]c(=O)c3C2)c1` (centres unmarked) [18-7]: the IC50 runs as follows: under setting [1], below 50 nM; under setting [2], below 10 nM.

In the case of `O=C(C(O)c1cccc(S(F)(F)(F)(F)F)c1)N1CCCc2nc(C3(c4cccs4)CC3)[nH]c(=O)c2C1` (centres unmarked) [18-8], the IC50 was below 50 nM under setting [1] and below 10 nM under setting [2].

Take `O=C([C@H](O)c1cccc(C(F)(F)F)c1)N1CCCc2nc(C3(c4cccs4)CC3)[nH]c(=O)c2C1` [18-9]: the IC50 was below 50 nM under setting [1] and below 10 nM under setting [2].

`O=C(C(O)c1cccc(Cl)c1F)N1CCCc2nc(C3(c4cccs4)CC3)[nH]c(=O)c2C1` (centres unmarked) [18-10]: the IC50 under setting [1] is below 50 nM.

Turning to `O=C([C@H](O)c1cccc(F)c1F)N1CCCc2nc(C3(c4cccs4)CC3)[nH]c(=O)c2C1` [18-11], the concentration for half-maximal inhibition (IC50) under setting [1] was below 50 nM.

Regarding `O=C([C@H](O)c1cccc(Cl)c1)N1CCCc2nc(C3(c4cccs4)CC3)[nH]c(=O)c2C1` [18-12], the IC50 under setting [1] was below 50 nM.
